Publication PMC3921447, “Homologous and heterologous desensitization of guanylyl cyclase-B signaling in GH3 somatolactotropes” (Cell and Tissue Research, 2013)

Tests used:
GC-A = molecular target: T1, GC-A (Rattus norvegicus, UniProt P18910); experiment: Effect of natriuretic peptide pre-treatment on ANP-stimulated (GC-A) cGMP accumulation in GH3 cells; type: cell-based; settings: 100 nM CNP pre-treatment 6 h, then 100 nM ANP plus 1 mM IBMX 15 min; Fig. 3d; ns, P > 0.05
T1 construct: Evidence of homologous desensitization of endogenous GC-A- and GC-B-mediated signaling in GH3 cells; endogenous in cells; host or cells: GH3 rat somatolactotrope cells
T1 sequence (P18910 29-1057): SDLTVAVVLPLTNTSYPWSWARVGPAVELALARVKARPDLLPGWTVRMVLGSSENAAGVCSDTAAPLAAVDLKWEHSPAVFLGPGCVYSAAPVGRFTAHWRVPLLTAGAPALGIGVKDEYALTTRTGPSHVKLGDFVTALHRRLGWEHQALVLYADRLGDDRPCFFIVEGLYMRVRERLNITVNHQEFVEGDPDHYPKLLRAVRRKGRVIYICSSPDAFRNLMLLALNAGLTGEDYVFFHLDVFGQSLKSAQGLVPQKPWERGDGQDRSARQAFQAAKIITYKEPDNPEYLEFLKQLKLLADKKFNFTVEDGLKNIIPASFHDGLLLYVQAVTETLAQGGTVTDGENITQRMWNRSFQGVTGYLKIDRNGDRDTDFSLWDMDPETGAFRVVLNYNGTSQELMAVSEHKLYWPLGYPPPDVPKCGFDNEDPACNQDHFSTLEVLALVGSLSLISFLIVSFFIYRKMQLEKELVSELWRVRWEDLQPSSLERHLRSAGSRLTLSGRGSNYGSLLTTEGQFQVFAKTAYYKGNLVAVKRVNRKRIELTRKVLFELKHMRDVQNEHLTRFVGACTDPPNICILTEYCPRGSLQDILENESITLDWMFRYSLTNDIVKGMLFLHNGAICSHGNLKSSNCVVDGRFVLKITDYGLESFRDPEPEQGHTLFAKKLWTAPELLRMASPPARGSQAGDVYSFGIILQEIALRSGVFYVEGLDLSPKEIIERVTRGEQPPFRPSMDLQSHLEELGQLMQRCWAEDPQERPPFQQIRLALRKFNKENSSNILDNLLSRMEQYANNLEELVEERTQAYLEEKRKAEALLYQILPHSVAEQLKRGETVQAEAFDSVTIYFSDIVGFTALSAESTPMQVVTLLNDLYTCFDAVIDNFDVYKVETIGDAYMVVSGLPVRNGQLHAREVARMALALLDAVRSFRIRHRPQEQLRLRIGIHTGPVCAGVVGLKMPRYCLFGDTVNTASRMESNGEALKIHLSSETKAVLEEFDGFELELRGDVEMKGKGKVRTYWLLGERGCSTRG
Description: (§1) Having established that GC-B signaling but not that of GC-A receptors, underwent rapid homologous desensitization, we next examined the effect of prolonged exposure of each receptor to its specific ligand. GH3 cells pre-treated with either ANP or CNP for 0 (control) to 6 h reduced the response to a subsequent 15-min treatment of ANP or CNP (with IBMX). […] The amount of cGMP measured from the 15-min pre-treatment sample was reduced by 39.6 ± 0.002 % (***P < 0.001). This effect was maintained up to the 6-h pre-treatment with CNP, which was reduced by 37.9 ± 7.1 % compared with the control (***P < 0.001).
(§2) Fig. 3 Effect of chronic exposure to CNP and ANP on GC-B- and GC-A-dependent cGMP accumulation in GH3 cells. Cells were initially treated with (a) 100 nM CNP or (b) 100 nM ANP in PSS without IBMX for 0 to 6 h. The medium was removed and replaced with 100 nM CNP (a) or 100 nM ANP (b) for 15 min in the presence of 1 mM IBMX. […]
(§3) In similar experiments designed to examine the effect of ANP pre-exposure to GC-A activity, a significant reduction in cGMP accumulation was observed within 30 min of ANP pre-treatment (by 28.9 ± 3.1 % compared with the control, *P < 0.05). […] In order to test the receptor specificity of the observed down-regulation of GC-B upon pre-treatment with CNP and of GC-A upon pre-treatment with ANP, the effects of ANP on GC-B and CNP on GC-A desensitization were determined. […]

GC-B = molecular target: T2, GC-B (Rattus norvegicus, UniProt P16067); experiment: Effect of natriuretic peptide pre-treatment on CNP-stimulated (GC-B) cGMP accumulation in GH3 cells; type: cell-based; settings: 100 nM CNP pre-treatment, then 100 nM CNP 15 min with IBMX; ns, P > 0.05; Fig. 3a
T2 construct: rapid homologous desensitization of endogenous GC-B receptors in GH3 cells; endogenous in cells; host or cells: GH3 rat somatolactotrope cells
T2 sequence (P16067 17-1047): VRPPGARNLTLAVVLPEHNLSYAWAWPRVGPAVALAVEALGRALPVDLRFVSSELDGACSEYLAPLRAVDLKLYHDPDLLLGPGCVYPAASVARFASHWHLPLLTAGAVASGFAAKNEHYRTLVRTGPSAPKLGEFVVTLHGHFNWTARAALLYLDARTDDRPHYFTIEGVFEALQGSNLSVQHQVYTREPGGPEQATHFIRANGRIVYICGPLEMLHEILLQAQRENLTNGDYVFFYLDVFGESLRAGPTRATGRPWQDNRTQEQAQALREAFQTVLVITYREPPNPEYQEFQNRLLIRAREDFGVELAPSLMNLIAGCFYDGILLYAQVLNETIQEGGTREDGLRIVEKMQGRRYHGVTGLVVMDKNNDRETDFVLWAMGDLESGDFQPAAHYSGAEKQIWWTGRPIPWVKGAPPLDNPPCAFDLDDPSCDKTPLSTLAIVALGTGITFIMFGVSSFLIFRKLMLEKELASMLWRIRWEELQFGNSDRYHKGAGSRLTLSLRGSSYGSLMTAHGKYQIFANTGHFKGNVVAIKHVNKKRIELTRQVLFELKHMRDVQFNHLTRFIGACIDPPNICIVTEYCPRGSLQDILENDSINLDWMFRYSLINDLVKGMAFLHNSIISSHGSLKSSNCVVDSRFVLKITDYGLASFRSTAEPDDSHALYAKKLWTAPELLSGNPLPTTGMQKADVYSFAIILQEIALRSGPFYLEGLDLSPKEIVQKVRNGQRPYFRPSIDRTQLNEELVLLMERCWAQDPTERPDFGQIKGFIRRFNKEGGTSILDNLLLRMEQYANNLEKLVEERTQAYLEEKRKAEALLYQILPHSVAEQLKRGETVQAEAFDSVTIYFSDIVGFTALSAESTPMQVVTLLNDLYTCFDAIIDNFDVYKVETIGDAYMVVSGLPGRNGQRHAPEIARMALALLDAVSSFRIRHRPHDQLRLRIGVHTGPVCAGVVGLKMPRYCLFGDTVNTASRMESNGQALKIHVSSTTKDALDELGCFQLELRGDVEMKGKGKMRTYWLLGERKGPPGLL
Description: as §1, §2, §3

For CC[C@H](C)[C@@H]1NC(=O)[C@H](CCCNC(=N)N)NC(=O)[C@H](CC(=O)O)NC(=O)[C@H](CC(C)C)NC(=O)[C@H](CCCCN)NC(=O)[C@H](CC(C)C)NC(=O)CNC(=O)[C@H](Cc2ccccc2)NC(=O)[C@@H](NC(=O)CNC(=O)[C@H](CCCCN)NC(=O)[C@H](CO)NC(=O)[C@H](CC(C)C)NC(=O)CN)CSSC[C@@H](C(=O)O)NC(=O)CNC(=O)[C@H](CC(C)C)NC(=O)CNC(=O)[C@H](CO)NC(=O)[C@H](CCSC)NC(=O)[C@H](CO)NC(=O)CNC1=O [CNP, C-type natriuretic peptide], the “ANP-stimulated cGMP after CNP pre-treatment vs control” value (GC-A) was “not significantly different from the control samples” and the “difference in reduction of cGMP between 15-min and 6-h pre-treatments” value (GC-B) was “did not significantly differ between the 15-min to 6-h pre-treatments”.
